In patent US11446299B2, “Carbazole EHop-016 derivatives as anticancer and anti-migratory agents” (UNIVERSITY OF PUERTO RICO, priority 2017, dated 2022):
Several values for one entry are separate records, joined by “and”; a condition that tells them apart may be missing. Equal entries are not always repeated.

Experiments:
[1] = test system: MDA-MB-231 breast cancer cells; test: Wound healing assay (scratch method), cell migration; type: cell-based, human; details: Homo sapiens; percent relative migration at 10 μM after 24 h, relative to control, MDA-MB-231
Rac = Rac (Homo sapiens, UniProt P63000); test: Rac activation, pulldown with p21-binding domain of PAK / ELISA-based Rac activity assay; type: cell-based; parameters: endogenous in cells; host or cells: MDA-MB-231 and MDA-MB-435 human breast cancer cells; details: for efficiency of Rac activation inhibition compared to lead compound Ehop-016: metastatic breast cancer cells
Description: FIG. 8 (A-B). Effect of HV-107 on Rac activation. FIG. 8A. MDA-MB-231 and FIG. 8B. MDA-MB-435 human breast cancer cells were treated for 24 h with 0, 100, or 250 nM HV-107. After treatment, total protein was extracted and equal amounts of proteins subjected to pulldown assays using the p21-binding domain of PAK to isolate the GTP bound (active) Rac. Samples were then western blotted for total and active Rac and positive bands quantified using image J. N=2; error bars represent ±SEM; * p≤0.05.
FIG. 10 (A-B). Effect of HV-118 on Rac activation. FIG. 10A. MDA-MB-231 and FIG. 10B. MDA-MB-435 human breast cancer cells were treated for 24 h with 0, 25, 50, or 100 nM HV-118. After treatment, total protein was extracted and equal amounts of proteins subjected to pulldown assays using the p21-binding domain of PAK to isolate the GTP bound (active) Rac. Samples were then western blotted for total and active Rac and positive bands quantified using image J. N=3-6; error bars represent ±SEM; * p≤0.05.
Additionally, the effect of replacing the aliphatic amide group at the 3-position with an aromatic ring, was also explored by synthesizing compound 7b. […] Addition of a three-carbon atom aliphatic chain linker between the pyridine ring (at the 2-position) and the morpholine group, as for 3d and 11a, results in some loss of anti-migratory activity. Moreover, the effect of 11b was tested on Rac activity, using an ELISA-based Rac activity assay and pulldowns assay.
The effects of HV-107 on the inhibition of Rac activation were tested by pulldown assays.
In FIG. 8A and FIG. 8B, human breast cancer cells MDA-MB-231 and MDA-MB-435, respectively, were treated for 24 h with […] HV-107. After treatment, total protein was extracted and equal amounts of proteins subjected to pulldown assays using the p21-binding domain of PAK to isolate the GTP bound (active) Rac. Samples were then western blotted for total and active Rac and positive bands quantified using image J. N=2; error bars represent ±SEM; * p≤0.05.
The effects of HV-118 on the inhibition of Rac activation were tested by pulldown assays.
In FIG. 10A and FIG. 10B, human breast cancer cells MDA-MB-231 and MDA-MB-435, respectively, were treated for 24 h with 0, 25, 50, or 100 nM HV-118. After treatment, total protein was extracted and equal amounts of proteins subjected to pulldown assays using the p21-binding domain of PAK to isolate the GTP bound (active) Rac. Samples were then western blotted for total and active Rac and positive bands quantified using image J. N=3-6; error bars represent ±SEM; * p≤0.05.

Structure (SMILES)	activity at 10 µM [1] [%]	inhibition at 0.25 µM (Rac; at 250 nM, 24 h, MDA-MB-231 and MDA-MB-435 cells) [%]	inhibition of Rac activation (Rac; at 250 nM, 24 h, MDA-MB-231 and MDA-MB-435 cells, listed as HV-107, 0.25 µM)	efficiency of Rac activation inhibition compared to lead compound Ehop-016 (Rac)	inhibition at 0.1 µM (Rac; at 100 nM, 24 h, MDA-MB-231 and MDA-MB-435 cells) [%]	potency relative to EHop-016 (Rac; preliminary data)
CCn1c2ccccc2c2cc(C(=O)Nc3cccnc3N3CCOCC3)ccc21 [Compound 11b, 9-Ethyl-9H-carbazole-3-carboxylic Acid (2-morpholin-4-yl-pyridin-3-yl)-amide]	66 ± 7.43	55	60% and 50%	approximately 4 ×		
CCn1c2ccccc2c2cc(Nc3cc(C)nc(Cl)n3)ccc21 [HV-118, (2-Chloro-6-methyl-pyrimidin-4-yl)-(9-ethyl-9H-carbazol-3-yl)-amine]				approximately 10 ×	~60	up to 20 times
